Data set [1] relates to vascular endothelial cell proliferation. As to conditions: endothelial versus tumor cell proliferation; cited from earlier work.
Data set [2] relates to tumor growth and metastasis. As to conditions: cited from earlier work.

As for `COc1cc(NC(=O)CBr)c(C(=O)c2ccccc2Cl)cc1F`, the melting point (as a rule, the temperature, or range, at which the solid turns liquid) lay within 177 to 178 °C.
Same read-out and setting: the figure for `COc1cc2c(cc1F)C(c1ccccc1Cl)=NCC(=O)N2` is 210 to 212.5 °C.
For `CO[C@@H]1[C@H](OC(=O)NC(=O)CCl)CC[C@]2(CO2)[C@H]1[C@@]1(C)O[C@@H]1CC=C(C)C` [AGM-1470], the “half-maximal inhibition of vascular endothelial cell proliferation at lower concentration than tumor cell proliferation” value in data set [1] was 4 logs. Further, the “tumor growth and metastasis in vivo” value in data set [2] was “inhibits tumor growth and metastasis in vivo”.
In the case of `COc1cc(F)c(C(=O)c2ccccc2Cl)cc1F` [Example 1, 2′-Chloro-2,5-difluoro-4-methoxybenzophenone], the melting point is 84 to 85 °C.
In turn, `COc1cc(NCc2ccccc2)c(C(=O)c2ccccc2Cl)cc1F` [Example 2, 2-(Benzylamino)-2′-chloro-5-fluoro-4-methoxybenzophenone] showed a melting point of 122 to 124 °C.
On the same count and under the same terms, the figure for `COc1cc(N)c(C(=O)c2ccccc2Cl)cc1F` [Example 3a, 2-Amino-2′-chloro-5-fluoro-4-methoxybenzophenone] is 130.5 to 132.5 °C; for `C=CCNc1cc(OC)c(F)cc1C(=O)c1ccccc1Cl` [Example 9, 2-(Allylamino)-2′chloro-5-fluoro-4-methoxybenzophenone] it is 125 to 127 °C.

The values are drawn from US20090203901A1, “Process for preparing pyrazole functionalized benzodiazepinones” (Roche Colorado Corporation, priority 2008, published 2009).
